Measured values: paper PMC7556876, “POMK regulates dystroglycan function via LARGE1-mediated elongation of matriglycan” (eLife, 2020)

Target: T1, POMK (Protein O-Mannose Kinase) (Danio rerio, UniProt Q5U3W1)
T1 construct: Purified Danio rerio POMK
Assay: ligand-observed 1D 1H NMR titration (Man H1 peak intensity)
Format: binding

T1 sequence (Q5U3W1 whole entry): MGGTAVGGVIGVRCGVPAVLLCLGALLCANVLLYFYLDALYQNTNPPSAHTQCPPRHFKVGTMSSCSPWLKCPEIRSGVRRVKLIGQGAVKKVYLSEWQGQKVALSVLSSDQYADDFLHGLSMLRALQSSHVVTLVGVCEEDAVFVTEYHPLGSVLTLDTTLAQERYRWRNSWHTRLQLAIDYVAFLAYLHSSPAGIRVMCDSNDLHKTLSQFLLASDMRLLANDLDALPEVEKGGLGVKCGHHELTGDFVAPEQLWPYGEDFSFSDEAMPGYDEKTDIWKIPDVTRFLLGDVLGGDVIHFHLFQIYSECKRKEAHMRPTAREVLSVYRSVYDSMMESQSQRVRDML

Kd: > 500 µM
Structure (SMILES): CC(=O)N[C@H]1[C@H](O[C@H]2[C@H](O)[C@@H](CO)O[C@@H](O[C@H]3[C@H](O)[C@H](O)[C@@H](Oc4ccc5c(C)cc(=O)oc5c4)O[C@@H]3COP(=O)(O)O)[C@@H]2NC(C)=O)O[C@H](CO)[C@H](O)[C@@H]1O [GGMp-MU]
